# Test results taken from patent US6911318B2, “Bacterial transglycosylases: assays for monitoring the activity using Lipid II substrate analogs and methods for discovering new antibiotics” (The Trustees of Princeton University, priority 1999, dated 2005).
# Assays:
# [1] = tested on: transglycosylases; test: modified membrane assay of radiolabeled Lipid II polymerization; type: biochemical; details: increasing concentrations of ramoplanin; FIG. 9
# From the text: Ramoplanin (FIG. 8) is a cyclic glycolipodepsipeptide antibiotic that kills gram positive bacteria by inhibiting cell wall biosynthesis. Ramoplanin blocks the conversion of Lipid I to Lipid II, a reaction that is catalyzed by the intracellular GlcNAc transferase. MurG. It is proposed that ramoplanin inhibits MurG by complexing Lipid I, which prevents it from being utilized as a substrate. Unexpectedly ramoplanin is shown by this inventor to inhibit the polymerization of Lipid II; therefore another mechanism is discovered by which ramoplanin can kill bacterial cells through inhibition of the transglycosylation step of peptidoglycan synthesis. Using a synthetic analogue of Lipid II, the evidence is presented that enzyme inhibition by ramoplanin involves substrate binding. Unexpectedly, the ramoplanin complexes are found to self-associate to form observable fibrils. The mechanism of action of ramoplanin has been investigated in the past in permeabilized bacterial cells and membrane preparations by following the incorporation of radiolabel from a precursor into various intermediates along the pathway to peptidoglycan. […] The effect of ramoplanin on Lipid II polymerization is evaluated by monitoring the amount of radioactive peptidoglycan formed in the presence of increasing concentrations of ramoplanin. […]
# [2] = NMR and CD titration of ramoplanin with compound 2; type: binding; details: NMR
# From the text: The ability of ramoplanin to interact with 2 is investigated by NMR (FIG. 10). Unexpectedly, titration of ramoplanin with compound 2 caused the ramoplanin signals to disappear. Resonances for free 2 began to appear at a 1:1 ramoplanin:2 ratio. The disappearance of the ramoplanin resonances connotes a change in relaxation properties consistent with the formation of a high molecular weight species. A striking increase in the viscosity of the ramoplanin samples is evident upon the addition of compound 2. In addition, electron micrographs of the ramoplanin complexes show long fibrils (not shown). Thus, ramoplanin undergoes a ligand-induced polymerization process in the presence of 2. Ligand-induced polymerization of ramoplanin complexes implies a conformational change in ramoplanin. Therefore, one would expect a significant change in the far UV CD spectrum of ramoplanin upon adding 2. In fact, the CD spectrum for ramoplanin changes dramatically upon titration with 2 (FIG. 11). The appearance of a minimum at ˜210 nm is consistent with a model in which assembly into fibrils is mediated by hydrogen bonds between amides in the ramoplanin complexes, and is all likelihood related to the unusual pattern of D and L amino acids in the molecule. […]
# [3] = tested on: transglycosylase present in bacterial membranes; test: in vitro polymerization of biotinylated-[14C]-Lipid II by bacterial membrane protein, ascending chromatography; type: biochemical; details: 0.06 μg/ml Moenomycin, FIG. 7
# Protocol: FIG. 7 discloses in vitro polymerization of biotinylated-[^14C]-Lipid II accomplished by incubation with bacterial membrane protein, and product is detected by ascending chromatography in isobutyric acid:1M NH4OH (5:3).
# In FIG. 7, biotinylated Lipid II serves as a substrate for transglycosylase present in bacterial membranes. Control: incubation of bacterial membranes with biotinylated Lipid II, which is also labeled with [^14C] […] It is thus clear that any other bacterial cell wall inhibitor can be equally screened.
substance,measurement,setting,value
Ramoplanin,effect on Lipid II polymerization (radioactive peptidoglycan formed),[1],blocks the polymerization of Lipid II
same,binding to Lipid II analogue,[2],binds to a synthetic analogue of Lipid II
moenomycin,formation of peptidoglycan from biotinylated [14C]-Lipid II,[3],inhibits formation of peptidoglycan
